Consider six substances from article PMC6752957, “Beta-defensins and analogs in Helicobacter pylori infections: mRNA expression levels, DNA methylation, and antibacterial activity” (PLoS ONE, 2019).

No end group written: not given here.

For experiment [1] the following is noted: cited from earlier work; for antimicrobial activity at high NaCl concentrations: background statement of the introduction. The source says:
Defensins exert their killing activity against bacteria, yeasts, fungi, and viruses. The activity of antimicrobial peptides involves the initial electrostatic binding to the cell membrane of microorganisms and subsequent incorporation into the membrane. This antimicrobial action induces damage or even destruction of the microbial cell membrane via pore formation. […] We previously reported the killing activity of β-defensin ...

The test system of experiment [2] is H. pylori (ATCC49503 (tox+ strain 60190)). Kind of experiment: CFU assay of antimicrobial activity against H. pylori, with salt dependence. It counts as cell-based, Helicobacter pylori. As to the method: CFU assays of the antimicrobial activities of HBDs against H. pylori (ATCC49503 (tox+ strain 60190); American Type Culture Collection, ATCC) were performed. The toxin-producing H. pylori strain was revived from frozen stocks by seeding on a blood agar plate (7% horse blood) at 37°C for 3 days in microaerophilic conditions (O2:10% and […]) generated with Anaeropack Campylo (Mitsubishi Gas Chemicals Corp.). Bacteria harvested from the plates were suspended in 200 ml of brain heart infusion broth (10% fetal calf serum) and grown in liquid culture at 37°C for three days while shaking in a monitored microaerophilic atmosphere.
H. pylori was incubated with HBDs for two hours at 37°C. Two concentrations of peptides (2.5 μM and 12.5 μM) were used. For the salt dependence assay, 0, 50, 100, and 200 mM concentrations of NaCl were added in the incubation buffer as previously described. Each assay was done in triplicate.
Antimicrobial activity of HBD2-4 and the analogs 3N and 3NI was evaluated on H. pylori, cultured on HP agar for 4 d after a […] pre-incubation with or without chemically synthesized HBD-2-4 and 3N and 3NI analogs. The two peptide sequences are derived from HBD1 and HBD3. 3N analog is the HBD3 sequence without the N-terminal domain that HBD1 lacks.
We evaluated two concentrations of every peptide (2.5 and 12.5 μM) and 4 NaCl concentrations (0, 50, 100, and 200 mM). Antibacterial activity of 3NI against H. pylori started at concentrations as low as 2.5 μM in the presence of at least 200 mM NaCl.

For the substance “GIINTLQKYYC^1RVRGGRC^2AVLSC^3LPKEEQIGKC^4STRGRKC^5C^6RRKK (bicyclic or more) [HBD3, human beta-defensin 3, purchased from Peptides International]”, the “antimicrobial activity at high NaCl concentrations” value (“antimicrobial activity” for short) in experiment [1] is “still active up to 150 mM NaCl concentrations”.

As to “HBD1: human beta-defensin 1, constitutively synthesized; only mentioned in background, not tested here (DHYNCVSSGGQCLYSACPIFTKIQGTCYRGKAKCCK; not fully specified; ends and bridges not checked; UniProt P60022 33-68, looked up)”, the “antimicrobial activity” value in experiment [1] was “reduced by high NaCl concentrations”.

Regarding “GIGDPVTC^1LKSGAIC^2HPVFC^3PRRYKQIGTC^4GLPGTKC^5C^6KKP (bicyclic or more) [HBD2, human beta-defensin 2, purchased from Peptides International]”, in experiment [1], the “antimicrobial activity” value is listed as “reduced by high NaCl concentrations”.

For “KYYC^1RVRGGRC^2AVLSC^3PIFTKIQGTC^4STRGRKC^5C^6RRKK (bicyclic or more) [3NI]”, in experiment [2] (2.5 and 12.5 μM, 0, 50, 100 and 200 mM NaCl (Fig 4 title)), the “antibacterial activity against H. pylori in contrast to wild-type peptides” value is “increased antibacterial activity”. The “concentration at which antibacterial activity against H. pylori started” value in experiment [2] (in the presence of at least 200 mM NaCl, CFU assay, peptides tested at 2.5 and 12.5 μM, triplicate) stood at 2.5 µM. In experiment [1] (earlier work of the authors), the “resistance of killing activity to high NaCl concentrations” value was “resistant to high NaCl concentrations”.

Consider “QKYYC^1RVRGGRC^2AVLSC^3LPKEEQIGKC^4STRGRKC^5C^6RRKK (bicyclic or more) [3N]”, for which the “antibacterial activity against H. pylori at 12.5 μM” value in experiment [2] (12.5 μM peptide, 0, 50, 100 and 200 mM NaCl, 3 independent experiments (Fig 4)) is given as “little antibacterial effect”.

For “ELDRIC^1GYGTARC^2RKK-C^3RSQEYRIGRC^4PNTYAC^5C^6LRK (bicyclic or more) [HBD4, human beta-defensin 4, purchased from Peptides International]”, the “antimicrobial activity” value in experiment [1] was “reduced by high NaCl concentrations”.
